From publication PMC5995184, “Potent anti-leukemic activity of a specific cyclin-dependent kinase 9 inhibitor in mouse models of chronic lymphocytic leukemia” (Oncotarget, 2018)
Where two headings read alike, the source gives them in different places.

Legend:
[1] = target: T1, CDK2-Cyclin A (Homo sapiens, UniProt P24941); assay: FRET-based LANCE Ultra in vitro enzymatic kinase assay, CDK2; format: biochemical
T1 construct: purchased ProQinase
Description: (§1) IC50 values for CDK inhibitors were determined using the fluorescence resonance energy transfer (FRET)-based LANCE Ultra KinaSelect Ser/Thr kit (Perkin Elmer). Kinase activity and inhibition were measured according to the manufacturer’s instructions and as previously described. […] FRET signals were recorded in a time-resolved manner in a Perkin Elmer EnVision reader. Purified cyclin-kinase pairs were obtained from the following suppliers: Carna Biosciences (CDK1-Cyclin B1, CDK6-Cyclin D3, CDK7-Cyclin H-MAT1), ProQinase (CDK2-Cyclin A) and Invitrogen (CDK9-Cyclin T1).
(§2) Data were analyzed with GraphPad Prism 7 software. Differences were assessed by unpaired or paired Student t tests if not indicated otherwise. Two-sided probabilities of less than 0.05 were considered significant. Nonlinear regression sigmoidal dose-response curve fit was used to determine the IC50 values and to generate graphs.

[2] = system: non-malignant normal donor B cells; assay: Normal donor B cell viability (Annexin V/DAPI, absolute counts); format: cell-based; settings: Homo sapiens, read-out: IC50, viable non-malignant B cells
Description: The MEC-1 cell line was obtained from the DSMZ (Braunschweig, Germany) and was cultured in RPMI (10% fetal bovine serum). A LDC526 stock solution was prepared with DMSO, diluted and added to the cultures to reach the specified concentrations. Samples (percentage of CD19+CD5+ CLL cells >90%) of n=37 CLL patients (Table 1) and n=6 healthy normal donor controls were used for experiments after obtaining informed consent according to institutional guidelines, approved by the Ethics Commission of the University of Essen-Duisburg. Peripheral blood mononuclear cells (PBMC) were isolated using Lymphoprep ([…] Technologies, Cologne, Germany) density gradient centrifugation and were used directly for NSG transplantation or in vitro experiments. Untouched normal donor B cells were isolated with a B cell isolation kit (Miltenyi, Bergisch Gladbach, Germany) according to the manufacturer’s instructions. […]
Apoptosis and cell death were determined by using Annexin V (BD Biosciences, Heidelberg, Germany) and 4′,6-Diamidin-2-phenylindol (DAPI, Sigma-Aldrich) staining. […] Flow cytometric data were analyzed with BD FACSDiva or FlowJo software (FLOWJO, LLC, Ashland, OR, USA). […]
Data were analyzed with GraphPad Prism 7 software. Differences were assessed by unpaired or paired Student t tests if not indicated otherwise. […]

[3] = target: T2, CDK9-Cyclin T1 (Homo sapiens, UniProt P50750); assay: FRET-based LANCE Ultra in vitro enzymatic kinase assay, CDK9; format: biochemical; settings: CDK9 versus other CDKs
T2 construct: purchased Invitrogen
T2 sequence (P50750 whole entry): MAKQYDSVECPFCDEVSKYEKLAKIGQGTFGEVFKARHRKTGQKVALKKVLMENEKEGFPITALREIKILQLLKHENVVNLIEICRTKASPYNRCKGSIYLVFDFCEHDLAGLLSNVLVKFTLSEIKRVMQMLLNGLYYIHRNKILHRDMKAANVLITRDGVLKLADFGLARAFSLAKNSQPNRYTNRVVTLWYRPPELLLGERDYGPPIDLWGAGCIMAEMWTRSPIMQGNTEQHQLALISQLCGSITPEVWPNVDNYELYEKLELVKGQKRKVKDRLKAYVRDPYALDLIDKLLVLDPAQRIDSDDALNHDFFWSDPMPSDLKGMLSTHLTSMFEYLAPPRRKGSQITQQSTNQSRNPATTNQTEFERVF
T2 sequence (O60563 whole entry partner): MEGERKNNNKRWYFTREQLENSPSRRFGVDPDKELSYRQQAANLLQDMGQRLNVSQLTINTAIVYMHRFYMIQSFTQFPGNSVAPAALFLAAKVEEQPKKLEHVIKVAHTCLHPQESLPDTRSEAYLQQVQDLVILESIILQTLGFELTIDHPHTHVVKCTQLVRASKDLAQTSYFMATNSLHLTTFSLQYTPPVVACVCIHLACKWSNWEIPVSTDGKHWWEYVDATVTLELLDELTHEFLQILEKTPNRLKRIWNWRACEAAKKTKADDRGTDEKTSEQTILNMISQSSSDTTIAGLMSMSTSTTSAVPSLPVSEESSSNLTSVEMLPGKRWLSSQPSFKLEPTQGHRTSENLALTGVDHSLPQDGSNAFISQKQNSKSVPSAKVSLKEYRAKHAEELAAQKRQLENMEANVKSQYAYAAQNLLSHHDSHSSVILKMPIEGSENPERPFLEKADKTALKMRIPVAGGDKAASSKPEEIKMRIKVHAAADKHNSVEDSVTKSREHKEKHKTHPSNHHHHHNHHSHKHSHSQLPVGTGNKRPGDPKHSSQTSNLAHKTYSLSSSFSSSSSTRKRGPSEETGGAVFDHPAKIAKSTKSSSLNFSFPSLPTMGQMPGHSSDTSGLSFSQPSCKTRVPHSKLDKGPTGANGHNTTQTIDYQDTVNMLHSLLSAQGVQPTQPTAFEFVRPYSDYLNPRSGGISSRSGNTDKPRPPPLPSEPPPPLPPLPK
Description: as §1, §2

[4] = target: T3, CDK7-Cyclin H-MAT1 (Homo sapiens, UniProt P50613); assay: FRET-based LANCE Ultra in vitro enzymatic kinase assay, CDK7; format: biochemical
T3 construct: purchased Carna Biosciences
T3 sequence (P50613 whole entry): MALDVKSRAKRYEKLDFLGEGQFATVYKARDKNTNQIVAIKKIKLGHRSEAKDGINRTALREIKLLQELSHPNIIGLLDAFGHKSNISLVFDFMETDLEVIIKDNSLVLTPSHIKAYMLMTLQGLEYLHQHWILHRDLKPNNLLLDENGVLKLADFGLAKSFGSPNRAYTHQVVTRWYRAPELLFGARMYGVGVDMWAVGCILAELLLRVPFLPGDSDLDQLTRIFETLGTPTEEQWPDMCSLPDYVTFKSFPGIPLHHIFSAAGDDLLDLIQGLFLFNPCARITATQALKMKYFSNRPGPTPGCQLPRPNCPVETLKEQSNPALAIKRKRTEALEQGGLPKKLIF
T3 sequence (P51946 whole entry partner): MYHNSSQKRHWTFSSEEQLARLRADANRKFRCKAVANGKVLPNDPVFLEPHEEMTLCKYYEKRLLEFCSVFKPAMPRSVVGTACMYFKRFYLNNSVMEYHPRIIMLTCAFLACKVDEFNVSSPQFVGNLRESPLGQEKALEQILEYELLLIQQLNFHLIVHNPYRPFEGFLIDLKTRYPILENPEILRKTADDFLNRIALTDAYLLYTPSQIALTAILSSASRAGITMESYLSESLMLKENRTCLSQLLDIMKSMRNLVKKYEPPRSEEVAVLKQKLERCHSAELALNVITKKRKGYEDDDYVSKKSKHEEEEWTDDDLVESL
T3 sequence (P51948 whole entry partner): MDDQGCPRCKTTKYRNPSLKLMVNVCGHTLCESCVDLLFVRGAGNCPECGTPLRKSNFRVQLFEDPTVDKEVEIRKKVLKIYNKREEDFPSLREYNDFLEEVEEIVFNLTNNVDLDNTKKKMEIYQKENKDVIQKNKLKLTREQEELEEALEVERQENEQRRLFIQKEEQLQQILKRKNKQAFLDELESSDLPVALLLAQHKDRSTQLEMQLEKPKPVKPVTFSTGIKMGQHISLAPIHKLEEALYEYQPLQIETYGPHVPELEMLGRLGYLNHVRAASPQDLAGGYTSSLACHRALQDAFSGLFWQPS
Description: as §1, §2

COc1cc(F)ccc1-c1ncnc(Nc2cccc(CS(N)(=O)=O)c2)n1 [LDC526, (3-((4-(4-fluoro-2-methoxyphenyl)-1,3,5-triazin-2-yl)amino)phenyl)methane-sulfonamide]
selectivity versus CDK9 compared to CDK2 [1]: 52 fold | IC50 ([2]; 24 hours incubation): 0.9 µM | IC50 ([2]; 48 hours incubation): 1.48 µM | selectivity against other CDKs [3]: at least 50 fold | IC50 [4]: > 10 µM
